ChEMBL document CHEMBL1275471, “ISEcp1-mediated transposition of qnrB-like gene in Escherichia coli” (2008)
Converted amounts (≈) assume the structure as drawn.

How the values were obtained:
Type in all cases: functional
Escherichia coli [1] = test: Antimicrobial activity against Escherichia coli J53 transconjugate by CLSI method
Escherichia coli [2] = test: Antimicrobial activity against Escherichia coli R4525 expressing gyrA S83L and D87Y and parC S80I and E84G mutant gene by CLSI method
Escherichia coli [3] = test: Antimicrobial activity against azide-resistant Escherichia coli J53 by CLSI method

With `CCN1CCN(c2cc3c(cc2F)c(=O)c(C(=O)O)cn3C2CC2)CC1` [ENROFLOXACIN] the MIC (Escherichia coli [1]) was 0.5 µg/mL (≈ 1.39 µM), the MIC (Escherichia coli [2]) was > 32 µg/mL and the MIC (Escherichia coli [3]) was 0.01 µg/mL (≈ 0.0278 µM).

For `CCn1cc(C(=O)O)c(=O)c2ccc(C)nc21` [NALIDIXIC ACID], the MIC (Escherichia coli [1]) was 32 µg/mL (≈ 138 µM), the MIC (Escherichia coli [2]) was > 256 µg/mL and the MIC (Escherichia coli [3]) was 4 µg/mL (≈ 17.2 µM).

`CCn1cc(C(=O)O)c(=O)c2cc(F)c(N3CCNCC3)cc21` [NORFLOXACIN] was tested, and the MIC (Escherichia coli [1]) was 1 µg/mL (≈ 3.13 µM), the MIC (Escherichia coli [2]) was > 256 µg/mL and the MIC (Escherichia coli [3]) was 0.12 µg/mL (≈ 0.376 µM).

In the case of `CC1COc2c(N3CCN(C)CC3)c(F)cc3c(=O)c(C(=O)O)cn1c23` (stereo not drawn) [OFLOXACIN], the MIC (Escherichia coli [2]) is reported as > 32 µg/mL.

In the case of `C[C@@H]1CN(c2c(F)c(N)c3c(=O)c(C(=O)O)cn(C4CC4)c3c2F)C[C@H](C)N1` [SPARFLOXACIN], the MIC (Escherichia coli [1]) is reported as 1 µg/mL (≈ 2.55 µM), the MIC (Escherichia coli [2]) is reported as > 32 µg/mL and the MIC (Escherichia coli [3]) is reported as 0.01 µg/mL (≈ 0.0255 µM).
